Legend:
[1] = target: T1, TLR4 (Mus musculus, UniProt Q9QUK6); test: Inhibitory effect with respect to NO production (LPS/interferon γ-stimulated RAW264.7); format: cell-based, murine; conditions: RAW264.7 cells, LPS 1.25 ng/mL and mouse interferon γ 0.2 ng/mL, nitrite ion in culture supernatant
T1 construct: endogenous in cells; host or cells: RAW264.7 (murine macrophage cell line)
T1 sequence (Q9QUK6 26-835): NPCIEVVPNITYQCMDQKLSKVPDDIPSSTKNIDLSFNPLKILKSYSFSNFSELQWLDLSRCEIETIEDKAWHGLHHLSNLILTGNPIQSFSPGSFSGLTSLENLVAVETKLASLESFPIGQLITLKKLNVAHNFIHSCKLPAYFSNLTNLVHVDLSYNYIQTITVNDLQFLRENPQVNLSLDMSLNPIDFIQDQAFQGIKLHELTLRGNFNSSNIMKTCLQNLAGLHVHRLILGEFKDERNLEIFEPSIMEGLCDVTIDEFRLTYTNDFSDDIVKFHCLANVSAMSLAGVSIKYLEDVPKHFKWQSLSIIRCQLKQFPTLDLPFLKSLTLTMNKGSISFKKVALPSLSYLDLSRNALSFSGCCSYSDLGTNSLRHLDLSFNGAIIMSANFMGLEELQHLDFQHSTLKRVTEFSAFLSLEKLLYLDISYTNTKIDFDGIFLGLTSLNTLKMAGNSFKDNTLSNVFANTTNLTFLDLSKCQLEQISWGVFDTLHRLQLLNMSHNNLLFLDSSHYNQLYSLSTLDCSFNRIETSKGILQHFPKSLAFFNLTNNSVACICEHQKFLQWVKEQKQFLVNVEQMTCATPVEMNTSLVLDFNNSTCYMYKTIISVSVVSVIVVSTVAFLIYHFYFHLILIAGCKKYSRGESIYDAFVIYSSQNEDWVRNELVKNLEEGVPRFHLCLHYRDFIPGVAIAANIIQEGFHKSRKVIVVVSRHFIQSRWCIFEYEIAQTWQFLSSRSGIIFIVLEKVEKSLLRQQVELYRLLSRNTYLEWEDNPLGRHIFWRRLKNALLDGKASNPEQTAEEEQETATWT
T1 sequence (Q9JHF9 19-160 partner): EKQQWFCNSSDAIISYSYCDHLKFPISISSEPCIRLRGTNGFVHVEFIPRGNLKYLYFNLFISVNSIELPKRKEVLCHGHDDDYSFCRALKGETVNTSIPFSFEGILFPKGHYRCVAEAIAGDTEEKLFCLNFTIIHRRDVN
Description: The inhibitory effect on TLR4 was determined using the inhibition rate due to the test compound with respect to NO production as a result of addition of lipopolysaccharide (LPS) using murine macrophage cell line RAW264.7. The cells were adjusted to 2×10^6 cells/mL using RPM1-1640 culture medium (phenol red free) supplemented with 10% inactivated bovine fetal serum, and were plated on 384 well plate so as to contain 6×10^4 cells/30 μL per well. Thereafter the cells were cultured at 37° C. overnight under 5% CO2/95% air. The test compound dissolved in DMSO was diluted 200 times using RPM1-1640 culture medium and adjusted so as to form a compound concentration of 500 nM. The prepared test compound 10 μL (final concentration 100 nM) was added to the cells, and LPS (Sigma) and mouse interferon γ (Wako Pure Chemicals) were added in amounts of 10 μL so as to form final concentrations of 1.25 ng/mL and 0.2 ng/mL respectively. The cells were further cultured overnight, and then the nitrite ion (stable NO metabolite) concentration in the culture supernatant was measured as an index of NO production. The nitrite ion concentration was assayed by adding 10 μL of 20 μg/mL 2,3-diamino naphthalene (DAN) dissolved in 0.2N HCl to 20 μL culture supernatant, incubating at room temperature for ten minutes, and then adding 10 μL of 0.5N NaOH, and measuring the fluorescent value at 460 nm (excitation wavelength 355 nm) using an EnVision plate reader (Perkin Elmer). The NO production inhibition rate (%) was calculated using the value without the addition of stimulating agent as control of 100% inhibition, and the value without the addition of the compound as control of 0% inhibition.

[2] = system: oxaliplatin induced-neuropathic pain model mouse; test: Analgesic action on oxaliplatin induced-neuropathic pain model mouse; format: in vivo; conditions: C57BL/6N mice, 1 week after oxaliplatin 0.3 mg/kg i.p., mean ± standard error
Description: Oxaliplatin was diluted with saline by the predetermined concentration, and administered intraperitoneally to mice (C57BL/6N, male, 8 weeks old) at 0.3 mg/kg. The test compound was dissolved in 10% captisol or 10% captisol containing 0.1% N-methyl-2-pyrrolidone. The compound was administered intravenously (0.1-10 mg/kg body weight) to the mice immediately before intraperitoneal administration of various anticancer drugs. The pain threshold was measured 1 week after oxaliplatin administration. The pain threshold was evaluated as a weighted value (gram) showing pseudo-escape reaction, when the footpad of the right hind limb was pressed using balance type pressurizing device (Ugo Basile). The values in the table show the mean±standard errors of the weighted values.

Compound | NO production inhibitory effect at 100 nM (% inhibition) [1] [% inhibition] | Pain threshold (weighted value showing pseudo-escape reaction) ([2]; 0.1 mg/kg i.v.) [gram] | Pain threshold (weighted value showing pseudo-escape reaction) ([2]; 0.3 mg/kg i.v.) [gram] | Pain threshold (weighted value showing pseudo-escape reaction) ([2]; 1 mg/kg i.v.) [gram]
CCOC(=O)C1=CC2(CC[C@H]1S(=O)(=O)[C@H]1CCc3cc(F)cc(Cl)c31)O[C@H](CO)[C@@H](CO)O2 [Compound 14, Ethyl (2R,3R,8R)-8-(((1S)-7-chloro-5-fluoro-2,3-dihydro-1H-inden-1-yl)sulfonyl)-2,3-bis(hydroxymethyl)-1,4-dioxaspiro[4.5]dec-6-ene-7-carboxylate] | 107 | 208.0 ± 33.8 | 215.0 ± 21.6 | 310.0 ± 33.8
CCOC(=O)C1=CC2(CC[C@H]1S(=O)(=O)[C@H]1CCc3cccc(Cl)c31)O[C@H](COC)[C@@H](COC)O2 [Compound 21, Ethyl (2R,3R,8R)-8-(((1S)-7-chloro-2,3-dihydro-1H-inden-1-yl)sulfonyl)-2,3-bis(methoxymethyl)-1,4-dioxaspiro[4.5]dec-6-ene-7-carboxylate] | 112 | 160.0 ± 29.7 | 265.0 ± 58.5 | 285.0 ± 19.3
